Experimental data reported in US5811074A, “Method of diagnosing pituitary dependent growth hormone deficiency” (University of South Florida, priority 1996, dated 1998).
Where a SMILES comes first, the peptide text is derived from it. Where no end group is shown, it is not given here. [ ]: non-standard residue; d: D form.

How the values were obtained:
pituitary GHRH receptor = biological target: T1, pituitary GHRH receptor (Rattus norvegicus, UniProt Q02644); assay: Effect of GHRH receptor antagonist on GH release in response to GHRP-6 or morphine in young rats; assay type: in vivo
T1 construct: tissue Charles River; host or cells: living Fischer 344 rats (pituitary, in vivo)
T1 sequence (Q02644 23-464): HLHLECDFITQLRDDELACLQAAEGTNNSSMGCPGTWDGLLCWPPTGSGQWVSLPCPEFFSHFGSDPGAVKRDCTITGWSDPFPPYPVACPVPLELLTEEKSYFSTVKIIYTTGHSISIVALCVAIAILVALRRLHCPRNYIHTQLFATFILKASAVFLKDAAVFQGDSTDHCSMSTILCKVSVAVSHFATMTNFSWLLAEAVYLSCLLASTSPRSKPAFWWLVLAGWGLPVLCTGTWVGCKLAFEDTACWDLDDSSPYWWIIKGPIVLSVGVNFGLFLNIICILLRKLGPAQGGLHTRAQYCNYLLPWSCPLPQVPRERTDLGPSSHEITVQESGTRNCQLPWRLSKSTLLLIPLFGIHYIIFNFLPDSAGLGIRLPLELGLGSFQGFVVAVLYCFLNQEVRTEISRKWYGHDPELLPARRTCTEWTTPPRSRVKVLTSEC
Protocol: FIGS. 3A-3B are dose response curves showing the effect of [N-Ac-Tyr^1,D-Arg^2 ]-GRF 1-29 amide, a GHRHreceptor antagonist, on GH release in response to GHRP-6 (30 μg/kg, closed symbols, FIG. 3A) or morphine (1.5 mg/kg, open symbols, FIG. 3B). The GHRH receptor antagonist was administered in doses of 0 (circle), 5 (square), 50 (triangle), or 150 (diamond) μg/kg. Values represent mean±SEM 8 rats per group.
The second possible cause of age-related decrements in GH secretion applicants considered was that deterioration in GH secretagogue signal transduction at the pituitary level contributes to the progressive insensitivity to provocative stimuli. In a test of this hypothesis, applicants examined GH secretory responses to GHRP-6 in young rats administered [N-Ac-Tyr^1, D-Arg^2 ]-GRF 1-29, an antagonist to the pituitary GHRH receptor.
However, 150 μg/kg of [N-Ac-Tyr^1, D-Arg^2 ]-GRF 1-29 amide potentiated GHRP-6 activity, presumably due to partial agonist activity of the GHRH receptor […] at the higher dose (Bercu et al., 1992a).

GH secretion [1] = assay: Provocative challenge with a GH secretagogue administered alone, peak serum GH; assay type: in vivo
Protocol: The diagnostic potential of GHRX and GHRH, with GHRP and growth hormone releasing hormone respectively the preferred compounds, for determining the etiology of GH secretory deficiency is profoundly affected by the sequence in which the secretagogues are administered. When GHRH is administered alone, the GH secretory response it elicits is extremely variable and is poorly dose related (Table 1).
On the other hand, the response to GHRP administered alone is not variable (Table 2). The minimal variability of the GHRP response is presumed to result from its partial action as a somatostatin […].
The growth hormone levels in the blood of the child or adult can be measured by any well known procedures, e.g., using an immunoradiometric assay as described by Bowers et al. (1990) or any other contemporary, scientifically accepted method.

GH secretion [2] = assay: Pediatric study: sequential GHRP then GHRH bolus, and co-administration, serum GH by radioimmunoassay; assay type: in vivo, children; settings: for GH response to sequentially administered secretagogue: hypopituitary subject (atrophic, developmentally retarded pituitary gland), FIG. 4B
Protocol: The protocol used in the pediatric study from which data presented below were collected involved the sequential administration of exogenous GHRP and exogenous GHRH as set forth in the present invention (Table 4; FIGS. 1A-1B). Briefly, each subject began testing at approximately 0900 h, one half hour after placement of an intravenous catheter. Two blood samples for basal concentrations of serum GH were drawn, and GHRP (1 μg/kg) was administered as a bolus. Blood samples were then drawn at five minute intervals for 20 minutes during which the GH secretory response occurred, and at longer intervals for about two hours thereafter.
GHRH (1 μg/kg) was then administered as a bolus, when basal GH concentrations were again established. Blood samples were similarly collected after GHRH administration as they were following GHRP administration. GH concentrations in each serum was then determined by radioimmunoassay.
The study population was composed of children with normal GH secretory function (serving as controls and normal baseline values) and those with GH secretory dysfunction of various clinical diagnoses. The purpose of evaluating different etiologies of GH secretory dysfunction was to validate the hypothesis that complementary endogenous GH secretagogues must be present for optimal expression of GHRP or GHRH stimulatory potential.

GH secretion [3] = assay: Repeated injections of GHRH preceded by GHRP in the same individual, peak serum GH; assay type: in vivo; settings: repeated tests in same individual
Protocol: The timing between the sequential, independent challenges must be between two and four hours with the preferred embodiment at two hours (120 minutes after GHRX administration). Blood is drawn at regular intervals for up to two hours after the administration of each secretagogue, generally every 5 minutes for the first 20 minutes after administration and 10-15 minute intervals thereafter for the remaining two hours. From these blood samples the peak GH response is measured thereby determining if GH level changes after each administration has occurred.
Relevant to using GHRH and GHRP as diagnostic agents is the fact that GHRP eliminates the endogenous factors causing variability in the GHRH response. Administration before GHRH creates an episode of GH secretion that "resets" the sensitivity of the GH neurosecretory axis to stimulation by GHRH, so that at the time of GHRH administration, uniform baseline conditions in the subject have been achieved. This then puts the GH neurosecretory axis in a uniform state of readiness for GHRH so that a subsequent relatively stable and constant episode of GHRH-stimulated GH secretion results (Table 3). This GHRH stimulated GH secretory episode can then be compared with the stable episode of GHRP-stimulated GH secretion that preceded it as a basis for the diagnostic test of the present invention.

GH release [4] = settings: rats; Bercu et al., 1992a; cited from earlier work
GH release [5] = assay: GHRP-6 activity in young rats with reduced endogenous GHRH (GHRH antiserum or α-methyl-p-tyrosine); assay type: in vivo
Protocol: FIG. 2 is a dose response curve for GHRP-6 in rats pretreated with vehicle (triangles), α-methyl-p-tyrosine (circles), or GHRH antiserum (squares). Values represent means±SEM (8 rats per dose and treatment) in plasma collected 15 minutes after administration of GHRP-6.
Young rats were passively immunized against endogenous GHRH or administered α-methyl-.rho.-tyrosine. If GHRH and the endogenous ligand of GHRP-6 are physiological co-agonists of GH secretion in the young rat, then removal of one or the other should be expressed as attenuated activity of its co-agonist when administered alone. Passive immunization which inactivates GHRH with neutralizing antibodies, or α-methyl-p-tyrosine (L form) which blocks stimulation of hypothalamic GHRH neurons were used to remove or reduce concentrations of endogenous GHRH in the young experimental animals. These treatments were intended to simulate the aged condition in which concentrations of GHRH and GHRH mRNA are low (De Gennaro Collona et al., 1989; Morimoto et al., 1988). Afterwards, GHRP-6 was administered to test and compare its efficacy with that in old rats (Walker et al., 1991).
Presumably, naturally occurring decrements in endogenous GHRH during aging contributed to the blunted response to GHRP-6 that applicants observed (Walker et al., 1991). […]

GH release [6] = assay: GH release after GHRP-6 alone and in combination with GHRH in old versus young rats; assay type: in vivo, Fischer 344 rats; settings: GHRP-6 alone, old vs young rats
Source text: Fischer 344 rats (Charles River), both male and female, were used. Young animals are defined as sexually mature between 2 and 7 months of age. Old animals are defined as those over 16 months of age.
GHRH-efficacy has been reported to be reduced 50 to 75% in old rats (Sonntag et al., 1983); therefore, applicants tested the effect of GHRP-6 alone and in combination with GHRH on GH release in old rats. Peak plasma GH concentrations resulting from GHRP-6 administration in old rats were approximately 60% less than in young rats. […] Since target organs sometimes become hyperresponsive when tonic and/or phasic stimulation decreases, than one would expect exaggerated responses to provocative exogenous stimuli under experimental conditions. GH hypersecretion observed in naive, old rats administered a single bolus of GHRH and GHRP (Walker et al., 1991) provides support for the hypothesis that deficits in stimulated GH secretion in aged rats were due to insufficient signals or inappropriately transduced GH releasing stimuli.

Molecule: [N-Ac-Tyr^1,D-Arg^2 ]-GRF 1-29 amide [[N-Ac-Tyr^1, D-Arg^2]-GRF 1-29 amide]
- GHRP-6 stimulated GH secretion as a function of time (pituitary GHRH receptor; 50 μg/kg antagonist, P<0.05, FIG. 3A): significantly reduced
- GHRP-6 stimulated GH secretion as a function of time (pituitary GHRH receptor; 150 μg/kg antagonist, P<0.01, FIG. 3A): significantly increased
- Effect on GHRP-6 activity (pituitary GHRH receptor; 150 μg/kg, GHRP-6 30 μg/kg): potentiated
- Morphine-stimulated GH secretion (pituitary GHRH receptor; 50 and 150 μg/kg antagonist, P<0.05, morphine 1.5 mg/kg, FIG. 3B): significantly reduced
- Effect on GHRP activity (pituitary GHRH receptor; pre-administration of 5 to 50 μg/kg, GHRP-6 30 μg/kg): attenuated

Molecule: C[C@H](NC(=O)[C@@H](Cc1c[nH]c2ccccc12)NC(=O)[C@@H](N)Cc1c[nH]cn1)C(=O)N[C@@H](Cc1c[nH]c2ccccc12)C(=O)N[C@H](Cc1ccccc1)C(=O)N[C@@H](CCCCN)C(N)=O [GHRP-6, His-D-Trp-Ala-Trp-D-Phe-Lys-NH2] (H-H[dW]AW[dF]K-NH2)
- Peak Serum GH x ± SEM (GH secretion [1]; GHRP alone, 0.1 μg/kg): 17.51 ± 1.91 ng/mL
- Peak Serum GH x ± SEM (GH secretion [1]; GHRP alone, 0.5 μg/kg): 41.31 ± 3.97 ng/mL
- Peak Serum GH x ± SEM (GH secretion [1]; GHRP alone, 1.0 μg/kg): 67.88 ± 6.1 ng/mL
- Peak Serum GH x ± SEM (GH secretion [1]; GHRP alone, 1.5 μg/kg): 81.60 ± 5.88 ng/mL
- GHRP:GHRH ratio (GH secretion [2]; children after radiation of the head (group)): < 1
- GHRP:GHRH ratio (GH secretion [2]; children responding poorly to both secretagogues but better to GHRP (group)): > 3
- GHRP to GHRH ratio (GH secretion [2]; constitutional delay subject, FIG. 4C): 3.1
- Peak response, serum GH (GH secretion [2]; constitutional delay subject, FIG. 4C, GHRP-6 1 μg/kg): 13.5 ng/mL
- GH response to sequentially administered secretagogue (GH secretion [2]): responded to neither
- GHRP to GHRH ratio (GH secretion [2]; irradiated subject, FIG. 4D): 0.38
- Peak response, serum GH (GH secretion [2]; irradiated subject, FIG. 4D, GHRP-6 1 μg/kg): 18.9 ng/mL
- Peak Serum GH x ± SEM (GH secretion [3]; GHRP 1.0 μg/kg given first): 69.31 ± 4.21 ng/mL
- Reduction of GHRP-6 activity by passive immunization against endogenous GHRH (GH release [4]): approximately 90%
- GHRP-6 activity (plasma GH 15 minutes after GHRP-6) (GH release [5]; young female rats pretreated with GHRH antiserum): significantly attenuated
- GHRP-6 activity (plasma GH 15 minutes after GHRP-6) (GH release [5]; young female rats pretreated with α-methyl-p-tyrosine): significantly attenuated
- Peak plasma GH concentration in old rats, less than in young rats (GH release [6]): approximately 60%

Molecule: GHRH: naturally occurring GH releasing hormone (growth hormone releasing hormone) (YADAIFTNSYRKVLGQLSARKLLQDIMSRQQGESNQERGARARL; ends and bridges not checked; UniProt P01286 32-75, looked up)
- Peak Serum GH x ± SEM (GH secretion [1]; GHRH alone, 0.1 μg/kg): 9.46 ± 3.71 ng/mL
- Peak Serum GH x ± SEM (GH secretion [1]; GHRH alone, 0.33 μg/kg): 16.45 ± 8.11 ng/mL
- Peak Serum GH x ± SEM (GH secretion [1]; GHRH alone, 1.0 μg/kg): 13.54 ± 6.51 ng/mL
- Peak Serum GH x ± SEM (GH secretion [1]; GHRH alone, 3.3 μg/kg): 21.80 ± 6.78 ng/mL
- Peak Serum GH x ± SEM (GH secretion [1]; GHRH alone, 10.0 μg/kg): 17.41 ± 4.67 ng/mL
- Peak response, serum GH (GH secretion [2]; constitutional delay subject, FIG. 4C, GHRH 1 μg/kg): 4.4 ng/mL
- GH response to sequentially administered secretagogue (GH secretion [2]): responded to neither
- Peak response, serum GH (GH secretion [2]; irradiated subject, FIG. 4D, GHRH 1 μg/kg): 49.4 ng/mL
- Peak Serum GH x ± SEM (GH secretion [3]; GHRH 1.0 μg/kg preceded by GHRP): 32.66 ± 3.33 ng/mL
